Measured values reported in the supplement of paper PMC5908809.

What was measured:
[1] = tested on: normal NK cells expanded with K562-aAPC; experiment: drug sensitivity score (DSS) (DSS units); higher = more sensitive; extreme values may be limits of the assay; conditions: 72 h; IL-2 2.5 ng/mL
Method: (§1)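 Drug sensitivity and resistance testing on K562-aAPC-expanded normal NK cells: 5 concentrations (10-fold steps over a 10,000-fold range), 72 h at 37 °C, viability by CellTiter-Glo normalised to DMSO and benzethonium chloride controls; DSS from the fitted curve.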

NK-YS (IL-2 2.5 ng/mL) [2] = experiment: as above; conditions: 72 h
KAI3 (IL-2 2.5 ng/mL) [3] = experiment: as above; conditions: 72 h
KHYG-1 (IL-2 2.5 ng/mL) [4] = experiment: as above; conditions: 72 h
[5] = tested on: normal primary NK cells, pool 1 (3 donors) (IL-2 2.5 ng/mL); experiment: as above; conditions: 72 h
[6] = tested on: normal primary NK cells, pool 1 (3 donors), resting (IL-2 0 ng/mL); experiment: as above; conditions: 72 h
NK-92 (IL-2 2.5 ng/mL) [7] = experiment: as above; conditions: 72 h
IMC-1 (IL-2 20 ng/mL) [8] = experiment: as above; conditions: 72 h
DERL-7 (IL-2 2.5 ng/mL) [9] = experiment: as above; conditions: 72 h
[10] = tested on: normal primary NK cells, pool 3 (3 donors) (IL-2 2.5 ng/mL); experiment: as above; conditions: 72 h
SNK-6 (IL-2 2.5 ng/mL) [11] = experiment: as above; conditions: 72 h
[12] = tested on: normal primary NK cells, pool 2 (3 donors) (IL-2 2.5 ng/mL); experiment: as above; conditions: 72 h
NKL (IL-2 2.5 ng/mL) [13] = experiment: as above; conditions: 72 h
YT (IL-2 2.5 ng/mL) [14] = experiment: as above; conditions: 72 h
[15] = tested on: normal NK cells expanded with K562-aAPC; experiment: percent inhibition of viability; higher = more inhibition; conditions: 72 h, IL-2 2.5 ng/mL
Method: as §1

NK-YS (IL-2 2.5 ng/mL) [16] = experiment: as above; conditions: 72 h
KAI3 (IL-2 2.5 ng/mL) [17] = experiment: as above; conditions: 72 h
KHYG-1 (IL-2 2.5 ng/mL) [18] = experiment: as above; conditions: 72 h
[19] = tested on: normal primary NK cells, pool 1 (3 donors) (IL-2 2.5 ng/mL); experiment: as above; conditions: 72 h
[20] = tested on: normal primary NK cells, pool 1 (3 donors), resting (IL-2 0 ng/mL); experiment: as above; conditions: 72 h
NK-92 (IL-2 2.5 ng/mL) [21] = experiment: as above; conditions: 72 h
IMC-1 (IL-2 20 ng/mL) [22] = experiment: as above; conditions: 72 h
DERL-7 (IL-2 2.5 ng/mL) [23] = experiment: as above; conditions: 72 h
[24] = tested on: normal primary NK cells, pool 3 (3 donors) (IL-2 2.5 ng/mL); experiment: as above; conditions: 72 h
SNK-6 (IL-2 2.5 ng/mL) [25] = experiment: as above; conditions: 72 h
[26] = tested on: normal primary NK cells, pool 2 (3 donors) (IL-2 2.5 ng/mL); experiment: as above; conditions: 72 h
NKL (IL-2 2.5 ng/mL) [27] = experiment: as above; conditions: 72 h
YT (IL-2 2.5 ng/mL) [28] = experiment: as above; conditions: 72 h

CC[C@H](CC#N)OC(=O)N[C@@H](C)c1cccc(NC(=O)Nc2ccc(-c3cnco3)c(OC)c2)c1 [AVN944] (max concentration tested 10000 nM)
Conditions	drug sensitivity score
DERL-7 (IL-2 2.5 ng/mL) [9]	22.3
IMC-1 (IL-2 20 ng/mL) [8]	13.5
KAI3 (IL-2 2.5 ng/mL) [3]	23.1
KHYG-1 (IL-2 2.5 ng/mL) [4]	23.1
NK-92 (IL-2 2.5 ng/mL) [7]	21.5
NK-YS (IL-2 2.5 ng/mL) [2]	22.9
NKL (IL-2 2.5 ng/mL) [13]	19.2
SNK-6 (IL-2 2.5 ng/mL) [11]	24.3
YT (IL-2 2.5 ng/mL) [14]	18.9
[1]	9.68
[5]	2.1
[6]	4.7
[10]	1.47
[12]	0.8

percent inhibition of viability [%]
Conditions	1 nM	10 nM	100 nM	1000 nM	10000 nM
DERL-7 (IL-2 2.5 ng/mL) [23]	1.82	-0.51	46.2	89.3	94.2
IMC-1 (IL-2 20 ng/mL) [22]	-3.38	0.07	-49.7	74.7	93.8
KAI3 (IL-2 2.5 ng/mL) [17]	3.06	5.82	42.7	101	97.7
KHYG-1 (IL-2 2.5 ng/mL) [18]	-0.31	1.95	46.9	96.4	96.2
NK-92 (IL-2 2.5 ng/mL) [21]	-6.77	-7.92	21.9	101	94.4
NK-YS (IL-2 2.5 ng/mL) [16]	1.24	-1.29	45.5	94.6	94
NKL (IL-2 2.5 ng/mL) [27]	-10.6	-12.7	32.8	81.2	72.3
SNK-6 (IL-2 2.5 ng/mL) [25]	6.47	13.1	56.5	91	96.5
YT (IL-2 2.5 ng/mL) [28]	1.64	0.89	25.8	83.2	83.1
[15]	-4.47	-3.33	15.6	41.6	39.1
[19]	-6.01	-11.6	1.98	6.68	27.3
[20]	-10.3	-2.43	27.4	7.53	62.7
[24]	-8.77	-6.21	4.2	12.5	18.4
[26]	-12.8	-4.58	1.01	5.56	16.6

CCC1(c2ccc(N)cc2)CCC(=O)NC1=O (stereo unspecified) [Aminoglutethimide] (max concentration tested 10000 nM)
Conditions	drug sensitivity score
DERL-7 (IL-2 2.5 ng/mL) [9]	0
IMC-1 (IL-2 20 ng/mL) [8]	0
KAI3 (IL-2 2.5 ng/mL) [3]	0
KHYG-1 (IL-2 2.5 ng/mL) [4]	0
NK-92 (IL-2 2.5 ng/mL) [7]	0
NK-YS (IL-2 2.5 ng/mL) [2]	0
NKL (IL-2 2.5 ng/mL) [13]	0.06
SNK-6 (IL-2 2.5 ng/mL) [11]	0
YT (IL-2 2.5 ng/mL) [14]	0
[1]	0
[5]	0
[6]	0.43
[10]	0
[12]	0

percent inhibition of viability [%]
Conditions	1 nM	10 nM	100 nM	1000 nM	10000 nM
DERL-7 (IL-2 2.5 ng/mL) [23]	6.92	1.97	7.28	-2.32	7.58
IMC-1 (IL-2 20 ng/mL) [22]	1.84	4.93	3.29	2.36	3.88
KAI3 (IL-2 2.5 ng/mL) [17]	14	10.4	8.76	9.73	9.01
KHYG-1 (IL-2 2.5 ng/mL) [18]	16.4	0	11	1.44	15.2
NK-92 (IL-2 2.5 ng/mL) [21]	7.96	0.54	12.4	0.81	11.1
NK-YS (IL-2 2.5 ng/mL) [16]	4.81	6.87	2.26	7.56	4.69
NKL (IL-2 2.5 ng/mL) [27]	28.3	0.83	18.7	-2.97	15.1
SNK-6 (IL-2 2.5 ng/mL) [25]	21.1	17.4	10.2	-16	-32.7
YT (IL-2 2.5 ng/mL) [28]	13.1	2.62	11.4	2.84	12.5
[15]	1.05	-2.97	-1	-2.85	0.83
[19]	-5.3	-8.94	-8.74	-4.93	1.17
[20]	-3.93	-9.4	-1.78	-7.06	21.1
[24]	4.12	-2.09	1.89	3.88	6.3
[26]	3.13	3.88	0.19	1.2	8.45

CS(=O)(=O)N1CCN(Cc2cc3nc(-c4cccc5[nH]ncc45)nc(N4CCOCC4)c3s2)CC1 [Pictilisib] (max concentration tested 10000 nM)
Conditions	drug sensitivity score
DERL-7 (IL-2 2.5 ng/mL) [9]	12.9
IMC-1 (IL-2 20 ng/mL) [8]	0
KAI3 (IL-2 2.5 ng/mL) [3]	4.66
KHYG-1 (IL-2 2.5 ng/mL) [4]	4.95
NK-92 (IL-2 2.5 ng/mL) [7]	11
NK-YS (IL-2 2.5 ng/mL) [2]	6.66
NKL (IL-2 2.5 ng/mL) [13]	9.46
SNK-6 (IL-2 2.5 ng/mL) [11]	2.73
YT (IL-2 2.5 ng/mL) [14]	6.22
[1]	5.88
[5]	8.06
[6]	8.8
[10]	2.3
[12]	4.41

percent inhibition of viability [%]
Conditions	1 nM	10 nM	100 nM	1000 nM	10000 nM
DERL-7 (IL-2 2.5 ng/mL) [23]	0.8	4.11	16.1	57.5	87.1
IMC-1 (IL-2 20 ng/mL) [22]	-6.08	-5.88	-14.1	-27.2	-37
KAI3 (IL-2 2.5 ng/mL) [17]	-6.58	2.21	8.79	17.4	52.6
KHYG-1 (IL-2 2.5 ng/mL) [18]	-3.48	-3.66	-5.51	9.17	62.5
NK-92 (IL-2 2.5 ng/mL) [21]	4.34	0.31	30.3	36.6	73.9
NK-YS (IL-2 2.5 ng/mL) [16]	0.04	3.57	4.67	27.4	64.3
NKL (IL-2 2.5 ng/mL) [27]	-16	-14.4	-0.35	45.4	73.1
SNK-6 (IL-2 2.5 ng/mL) [25]	9.42	16.7	-3.54	3.83	42
YT (IL-2 2.5 ng/mL) [28]	-3.11	-1.03	5.07	24.7	62
[15]	2.02	0.78	10.8	25.4	51.1
[19]	-12	-5.63	1.66	32.2	72.9
[20]	-0.3	-14.8	0.53	45.2	63.4
[24]	-9.78	-13.3	-0.72	3.18	37.3
[26]	-12.1	3.86	0.41	8.6	55.1

NC(=S)N/N=C/c1ncccc1N [Triapine] (max concentration tested 10000 nM)
Conditions	drug sensitivity score
DERL-7 (IL-2 2.5 ng/mL) [9]	4.86
IMC-1 (IL-2 20 ng/mL) [8]	4.69
KAI3 (IL-2 2.5 ng/mL) [3]	9.5
KHYG-1 (IL-2 2.5 ng/mL) [4]	13.8
NK-92 (IL-2 2.5 ng/mL) [7]	12.1
NK-YS (IL-2 2.5 ng/mL) [2]	9.25
NKL (IL-2 2.5 ng/mL) [13]	4.61
SNK-6 (IL-2 2.5 ng/mL) [11]	4.48
YT (IL-2 2.5 ng/mL) [14]	3.49
[1]	10.1
[5]	3.86
[6]	8.2
[10]	4.03
[12]	3.34

percent inhibition of viability [%]
Conditions	1 nM	10 nM	100 nM	1000 nM	10000 nM
DERL-7 (IL-2 2.5 ng/mL) [23]	-1.06	2.72	-5.08	-8.15	97.7
IMC-1 (IL-2 20 ng/mL) [22]	-5.06	0.28	-5.51	-12.1	98
KAI3 (IL-2 2.5 ng/mL) [17]	-5.83	4.79	3.83	32.7	93.6
KHYG-1 (IL-2 2.5 ng/mL) [18]	-1.53	-0.9	-1.65	73.7	97.9
NK-92 (IL-2 2.5 ng/mL) [21]	-11.5	-5.21	-2.75	61.1	90.6
NK-YS (IL-2 2.5 ng/mL) [16]	-1.66	-1.59	-1.57	26.8	95.1
NKL (IL-2 2.5 ng/mL) [27]	-2.42	-1.96	-11.9	-7.16	92.3
SNK-6 (IL-2 2.5 ng/mL) [25]	4.11	13	14.7	-6.98	89.7
YT (IL-2 2.5 ng/mL) [28]	0.85	0.16	-3.39	-10	74.8
[15]	-2.67	-8.24	-2.71	55	64.6
[19]	-6.36	-11	-8.82	4.76	57.7
[20]	-6.48	-20.7	-16.6	22.7	85.8
[24]	-6.53	-8.38	-5.12	15.8	38.7
[26]	-9.87	-3.04	-3.45	8.38	40
